According to article PMC7352759, “S(+)-(2E)-N-(2-Hydroxypropyl)-3-Phenylprop-2-Enamide (KM-568): A Novel Cinnamamide Derivative with Anticonvulsant Activity in Animal Models of Seizures and Epilepsy” (International Journal of Molecular Sciences, 2020):

Tests used:
hippocampal kindled rats = experiment: Hippocampal kindled rat model; type: in vivo; details: for Results (protected/tested animals) / Seizure Duration ± SEM / Seizure Score ± SEM (Racine scale): i.p.
Experimental: The electrodes were implanted in brains one week prior to experiments. Then, rats were stimulated with suprathreshold stimuli of 200 µA for 10 sec at 50 Hz every 30 min for 6 h on alternate days until fully kindled. One week after reaching the fully kindled state, the effect of 23 and 27 mg/kg, i.p. of KM-568 in the groups of 5–6 rats were evaluated. The tests were performed at different time points (0–2.25 h) after compound administration. The results were scored as behavioral seizure score (according to Racine scale) and after discharge duration. The protection was noted if the seizure score was 3 or less.

H9c2 cells = experiment: MTT cytotoxicity assay, H9c2; type: cell-based, rat
Experimental: (§1) Human liver cancer HepG2 cell line (ATCC HB8065) and rat cardiomyoblast cell line H9c2 (ATCC-CRL1446) were purchased in ATCC (American Type Culture Collection, Manassas, VA, USA). The cells were cultured in standard conditions (37 °C, 5% CO2) in EMEM medium (ATCC, Manassas, VA, USA), supplemented with 10% FBS (Gibco, Waltham, MA, USA) and antibiotics (1% streptomycin/penicillin mixture, Sigma–Aldrich, Darmstadt, Germany) or DMEM high glucose (ATCC, Manassas, VA, USA) supplemented with 10% FBS (Gibco, Waltham, MA, USA) and antibiotics (1% streptomycin/penicillin mixture, Sigma–Aldrich, Darmstadt, Germany), respectively.
(§2) The MTT colorimetric assay was used to determine the cytotoxic effects of the KM-568 and DOX (Sigma–Aldrich, Darmstadt, Germany). Cells were seeded at a density of 1 × 10^4 in 96-well plates. Following overnight culture, the cells were then treated with KM-568 and DOX in concentration range 0.1–200 µM (hepatocytotoxicity) or 0.1–100 µM (cardiocytotoxicity). Following cell exposure to each drug for 24 h in 96 well plates, 10 µL MTT reagent (Sigma–Aldrich, Darmstadt, Germany) was added to each well; after 4 h of incubation (37 °C, 5% CO2), the medium was aspirated and formazan produced in cells appeared as dark crystals in the bottom of the wells. […] Then, absorbance was measured at 570 nm on a multi-well plate reader (Spectra Max iD3, Molecular Devices, San Jose, CA, USA). […]

[1] = system: rat cerebral cortex AMPA receptor; experiment: AMPA receptor radioligand binding ([3H]AMPA); details: 10 µM; agonist radioligand
Experimental: In order to identify molecular mechanism of action, KM-568 was tested at 10 µM in three radioligand binding assays: rat cerebral cortex GABA receptor non-selective agonist radioligand, AMPA (α-amino-3-hydroxy-5-methyl-4-isoxazolepropionic acid) receptor agonist radioligand, and NMDA (N-methyl-D-aspartate) receptor antagonist radioligand as well as one functional assay involving a human recombinant TRPV1 receptor expressed in CHO cells (agonist and antagonist effects).
Tests were performed by Eurofins Cerep (Eurofins CEREP SA, Celle-Lévescault, France) as a commercial service. In radioligand assays, rat cerebral cortex GABA receptor as well as rat cerebral cortex AMPA (α-amino-3-hydroxy-5-methyl-4-isoxazolepropionic acid) and NMDA (N-methyl-D-aspartate) receptors with 10 nM [^3H]GABA, 8 nM [^3H]AMPA, and 5 nM [^3H]CGP39653, respectively, were used. The results were detected by means of scintillation counting. In functional assays, a human recombinant TRPV1 receptor expressed in Chinese hamster ovary (CHO) cells with 1 µM capsaicin or 30 nM capsazepine were used. Fluorimetry was used as a detection method.

mice = experiment: Subcutaneous metrazol seizure threshold test (scMET), mice; type: in vivo; details: for ED50: Mus musculus, 95% confidence interval in parentheses
Experimental: In vivo activity testing was performed at the Epilepsy Branch, National Institute of Neurological Disorders and Stroke, National Institutes of Health (NIH, Bethesda, USA) within the Anticonvulsant Screening Program (ASP) (currently known as the Epilepsy Therapy Screening Program (ETSP)). Pharmacological evaluation was planned and performed in accordance with the Institute of Laboratory Resources polices on the humane care of laboratory animals and approved by the University of Utah’s Institutional Animal Care and Use Committee (IACUC). All testing protocols were previously published as well as they are available on the NIH website. In the tests, albino mice Carworth Farms No.1 (CF-1) (Charles River), C57/Bl6 mice (Charles River), Frings mice (University of Utah) or male rats Sprague–Dawley (Charles River) were used. All animals were housed, fed, and handled in a manner consistent with the recommendations in the National Council Publication, ‘Guide for the Care and Use of Laboratory animals’ [51]. The tested compound was suspended in 0.5% methylcellulose.
The tested compound was administered i.p. or p.o. at certain dose. Then, subcutaneous injection of metrazol (syn. pentetrazol, pentylenepentetrazol) dissolved in 0.9% NaCl at the dose of 85 mg/kg (mice) or 70 mg/kg (rats) was performed to induce seizures. Protection was scored if there was not an observed episode of clonic spasm of at least 5 sec.

HepG2 cells = experiment: MTT cytotoxicity assay, HepG2; type: cell-based, human
Experimental: as §1, §2

Structure (SMILES): C[C@H](O)CNC(=O)/C=C/c1ccccc1 [KM-568, S(+)-(2E)-N-(2-hydroxypropyl)-3-phenylprop-2-enamide]
- ED50 (hippocampal kindled rats; Rattus norvegicus, ip): 24.2 mg/kg
- Results (protected/tested animals) (hippocampal kindled rats; 23 mg/kg, 15 min): 2/6
- Seizure Duration ± SEM (hippocampal kindled rats; 23 mg/kg, 15 min): 55.67 ± 6.44 s
- Seizure Score ± SEM (Racine scale) (hippocampal kindled rats; 23 mg/kg, 15 min): 3.67 ± 0.84
- Seizure Duration ± SEM (hippocampal kindled rats; 23 mg/kg, 45 min): 65.83 ± 14.61 s
- Seizure Score ± SEM (Racine scale) (hippocampal kindled rats; 23 mg/kg, 45 min): 5.0 ± 0.0
- Seizure Duration ± SEM (hippocampal kindled rats; 23 mg/kg, 75 min): 56.67 ± 6.96 s
- Seizure Score ± SEM (Racine scale) (hippocampal kindled rats; 23 mg/kg, 75 min): 5.0 ± 0.0
- Seizure Duration ± SEM (hippocampal kindled rats; 23 mg/kg, 100 min): 57.83 ± 9.27 s
- Seizure Score ± SEM (Racine scale) (hippocampal kindled rats; 23 mg/kg, 100 min): 5.0 ± 0.0
- Seizure Duration ± SEM (hippocampal kindled rats; 23 mg/kg, 135 min): 55.17 ± 9.48 s
- Seizure Score ± SEM (Racine scale) (hippocampal kindled rats; 23 mg/kg, 135 min): 5.0 ± 0.0
- Results (protected/tested animals) (hippocampal kindled rats; 27 mg/kg, 15 min): 4/5
- Seizure Duration ± SEM (hippocampal kindled rats; 27 mg/kg, 15 min): 50.4 ± 3.08 s
- Seizure Score ± SEM (Racine scale) (hippocampal kindled rats; 27 mg/kg, 15 min): 1.8 ± 0.97
- Seizure Score ± SEM (Racine scale) (hippocampal kindled rats; 27 mg/kg, 45 min): 4.2 ± 0.80
- Seizure Duration ± SEM (hippocampal kindled rats; 27 mg/kg, 75 min): 70.6 ± 27.57 s
- Seizure Score ± SEM (Racine scale) (hippocampal kindled rats; 27 mg/kg, 75 min): 3.4 ± 0.98
- Seizure Duration ± SEM (hippocampal kindled rats; 27 mg/kg, 100 min): 62.5 ± 10.71 s
- Seizure Score ± SEM (Racine scale) (hippocampal kindled rats; 27 mg/kg, 100 min): 5.0 ± 0.0
- Seizure Duration ± SEM (hippocampal kindled rats; 27 mg/kg, 135 min): 95.0 ± 17.78 s
- Seizure Score ± SEM (Racine scale) (hippocampal kindled rats; 27 mg/kg, 135 min): 5.0 ± 0.0
- percent of living cells (H9c2 cells; H9c2, 24 h incubation with 100 µM): ~100%
- cytotoxic effect, MTT assay (H9c2 cells; H9c2, up to 100 µM, 24 h): no cytotoxic effect
- Effect in AMPA receptor radioligand binding assay [1]: No significant effects
- ED50 (mice; ip, 0.25 h): 104 mg/kg
- ED50 (mice; po, 0.5 h): 107 mg/kg
- scMET Results (protected/tested animals) (mice; i.p., 70 mg/kg, 0.25 h): 2/8
- scMET Results (protected/tested animals) (mice; i.p., 100 mg/kg, 0.25 h): 3/8
- scMET Results (protected/tested animals) (mice; i.p., 138 mg/kg, 0.25 h): 5/8
- scMET Results (protected/tested animals) (mice; i.p., 170 mg/kg, 0.25 h): 8/8
- scMET Results (protected/tested animals) (mice; p.o., 50 mg/kg, 0.5 h): 1/8
- scMET Results (protected/tested animals) (mice; p.o., 100 mg/kg, 0.5 h): 4/8
- scMET Results (protected/tested animals) (mice; p.o., 150 mg/kg, 0.5 h): 4/8
- scMET Results (protected/tested animals) (mice; p.o., 200 mg/kg, 0.5 h): 8/8
- percent of living cells (HepG2 cells; HepG2, 24 h incubation with 100 µM): ~100%
- cytotoxic effect, MTT assay (HepG2 cells; HepG2, up to 100 µM, 24 h): no cytotoxic effect
